Data set [1] is described as follows: Initial dissolution rate of printed film versus loose powder (USP 2 stirring apparatus, UV-VIS). Type of data set: physicochemical. The source says:
When comparing dissolution from powder form and film form for the same material and same crystal structure, D, V, Cs are constant and initial dissolution rate will be proportional to A/δ. δ and A are constant for dissolution from film since area of the film is not changing during dissolution. In a powder, δ and A are changing since particles size and shape is changing. […] Therefore only the initial rate can be compared between powder and a film.
In order to compare film form versus original powder dissolution behavior, loose powders with same weight as films are introduced into 10 ml solution without any prior treatment and stirred using stirring rod with same shape and diameter as one that is used for films. All experiments are performed at temperature […].
(§1) For dissolution rate experiments a USP 2 stirring apparatus with stirring speed of 100 rpm is used. Concentration is monitored using UV-VIS spectrometer equipped with dipping probe. As an example glass slides substrates with deposited 9 mm diameter drug films are used. Films weights are in the range of 5-80 μg. First, intrinsic dissolution rate (IDR) of films is studied and compared it to dissolution of compressed powder in form of 1.57 mm diameter pellets. IDR is defined as Equation (4): […]

A short description of data set [2]: Intrinsic dissolution rate (IDR) of films compared with compressed powder pellets. Type of data set: physicochemical. As to conditions: comparable to compressed pellets, about 10 ml, 20±1° C., solvent per compound as. Here is the method: as §1
In this case (dm/dt)max is maximum slope in a dissolution curve evaluated at the start of dissolution process (m—dissolved solute mass). Glass substrates with deposited films are attached to a stirring rod having same diameter as compressed pellets rod (20 mm), assuring that hydrodynamic boundary layer thickness is same for compressed powder and deposited film. Solution volume remains constant in all experiments, about 10 ml, and temperature is 20±1° C.

A short description of another data set: physchem. The conditions noted are these: 20 °C. Here is the method: First, solubilities of the different compounds in corresponding solvents are measured at temperature 20±1° C.
Data set [3] in a line: Surface area of printed film and of powder. Type of data set: physicochemical.
For data set [4], the system named is breast carcinoma cell line, MCF7. Description: Cancer cell growth inhibition by drug film, powder or DMSO solution. Type of data set: cell-based. As to conditions: after 48 hours, nominal 5 μM.
Data set [5] has as its system ovarian carcinoma cell line, OVCAR3. The description is as above. As to conditions: for OVCAR3 cancer cells viability: after 48 hours, nominal 5 μM. Type of data set: cell-based. As for the experimental part:
The printed films of BAY 11-7082 are tested by applying OVCAR3 cells solution directly onto the film, as compared to the BAY 11-7082 drug in powder form dissolved in DMSO.
See FIG. 11 showing drug application in a film form.

Another data set is described as follows: Solubility at pH 7.4. Type of data set: physicochemical.
Where [6] appears, read: powder form dissolved in growth medium.

Here are results for 4 molecules from patent US20230044649A1, “METHODS TO ENHANCE BIOAVAVAILABILITY OF ORGANIC SMALL MOLECULES AND DEPOSITED FILMS MADE THEREFROM” (THE REGENTS OF THE UNIVERSITY OF MICHIGAN, priority 2015, published 2023).

Structures are written as SMILES. Converted amounts (≈) assume the structure as drawn.

In general, solubility refers to the dissolved amount per volume that the medium holds. A low value points to a poorly soluble substance.

As to `CC(C)Cc1ccc(C(C)C(=O)O)cc1` (stereo not drawn) [ibuprofen], in data set [1] (aqueous HCl buffer pH 1.2, FIG. 10(b), 19±1° C.), the “enhancement of initial dissolution rate in film versus loose powder” value was “about 30 times”. In addition, the “initial dissolution rate, printed film relative to powder” value in data set [1] (ibuprofen in buffer HCl 1.3) is “about 10 times higher”. For the same molecule, the initial dissolution rate was found to be 0.0004 µg/mL/s in data set [1] (ibuprofen in buffer HCl 1.3, 30 μg of powder) and 0.04 µg/mL/s in data set [1] (ibuprofen in buffer HCl 1.3, printed film). In data set [2], the “intrinsic dissolution rate (IDR)” value is 1×10^−3±3×10^−4 μg sec^−1 mm^−2. The molecule also gave a solubility in “physchem” (pH 1.2, simulated gastric fluid) of 22.5 ± 0.5 µg/mL (≈ 109 µM). The “film surface area relative to powder surface area” value in data set [3] is on record as “about 5 times higher”.

Consider `CC/C(=C(\c1ccccc1)c1ccc(OCCN(C)C)cc1)c1ccccc1` [tamoxifen], for which the “intrinsic dissolution rate (IDR)” value in data set [2] was 6×10^−4±1×10^−4 μg sec^−1 mm^−2. In addition, the “MCF7 cancer cells viability” value in data set [4] (film form) is 58%; in data set [4] (setting [6]), 79%. In addition, the figures for the “OVCAR3 cancer cells viability” value in data set [5] (film form) and in data set [5] (setting [6]) were 44% and 68%, respectively.

In turn, `O=C1OC2(c3ccc(O)cc3Oc3cc(O)ccc32)c2ccccc21` [fluorescein] had a solubility in “physchem” (water) of 10 ± 0.5 µg/mL (≈ 30.1 µM).

Molecule `Cc1ccc(S(=O)(=O)/C=C/C#N)cc1` [BAY 11-7082, (E)-3-(4-Methylphenylsulfonyl)-2-propenenitrile] returned a solubility in the data set “Solubility at pH 7.4” of 29.25 ± 0.05 µg/mL (≈ 141 µM). For the same molecule, the “efficacy / viability with film form drug compared with drug dissolved in DMSO” value in data set [5] (OVCAR3 cells applied directly onto the film) was “No significant difference in efficacy”.
